Measured values: patent EP4706655A1, “PREVENTIVE OR THERAPEUTIC AGENT FOR NEURODEGENERATIVE DISEASE” (Medilabo RFP, Inc., priority 2023, dated 2024)

How the values were obtained:
PKR = experiment: Immunohistochemical analysis of phospho-PKR (Thr446) (Test Example 2); type: in vivo, mice; settings: prefrontal cortex; nasal, single agent 0.04 mg/day, 1 month
Protocol: (§1) Age-matched non-Tg rat mates received only CMC.
(§2) After the behavioral test, each group was divided into two groups: one for immunohistochemical analysis and the other for future biochemical analysis. Immunohistochemical staining was performed as described above. For staining of double-stranded RNA-dependent protein kinase (PKR), phosphorylated TDP-43, synaptophysin, sections were boiled in 10 mM citrate buffer solution (pH6) for 30 min to expose the antigens. The sections were blocked overnight with 10% calf serum, and then the resultant sections were stained with antibodies for DNA/RNA G-quadruplex (BG4; Absolute antibody, Cleveland, UK), phospho-PKR (Thr446) (MilliporeSigma, Burlington, MA, USA), poly-GA, poly-GP (Cosmo Bio Co., Ltd., Tokyo, Japan), pSer409/410-TDP-43 (Cosmo Bio Co., Ltd.), and synaptophysin (SVP-38; Sigma-Aldrich, St. Luis, MO, USA). Only synaptophysin was stained with a biotin-labeled secondary antibody (Vector Laboratories, Burlingame, CA, USA), a horseradish peroxidase (HRP) -labeled avidin-biotin complex (Vector Laboratories), HRP substrate, diaminobenzidine (DAB), or an FITC-labeled secondary antibody (The Jackson Laboratory). […] Neuropathologies were evaluated by measuring the staining intensity or area or by counting positive puncta or cells in a constant area in each photograph using NIH ImageJ software.

FTD/ALS model mice [1] = experiment: Immunohistochemical analysis of brain sections (Test Example 2); type: in vivo; settings: nasal, single agent 0.04 mg/day, 1 month
Source text: (§3) FVB/NJ-Tg(C9orf72)500Lpwr/J mice (FTD/ALS model mice) were purchased from The Jackson Laboratory (Bar Harbor, ME, USA). The mouse strain was generated as a model for the C9orf72-associated FTD/ALS expressing the human C9orf72 gene with about 500 hexanucleotide (GGGGCC) repeats using a bacterial artificial chromosome (BAC) vector. Transgenic (Tg) mice were crossed with wild-type FVB/NJc1 mice, and the transgene was maintained as a heterozygote at our animal facility.
as §1, §2

FTD/ALS model mice [2] = experiment: Morris water maze test (Test Example 2); type: in vivo; settings: 7- to 8-month-old mice; nasal, single agent 0.04 mg/day, 1 month
Source text: as §3, with “([…])” for “(GGGGCC)”, “facility. […] Louis, MO) and trans-resveratrol (Sigma-Aldrich) were dissolved in 0.5% low-viscosity CMC (Sigma-Aldrich) at 4 mg/mL. […] Age-matched non-Tg […] mates received only CMC. After administration for one month, the cognitive function of the mice was assessed in the Morris water maze test as described above.” for “facility.”

BDNF = experiment: Expression of BDNF in the mouse brains; type: in vivo; settings: stated in the discussion only; no method, dose or data given

## Oc1ccc(/C=C/c2cc(O)cc(O)c2)cc1 [resveratrol, 3,5,4'-trihydroxy-trans-stilbene]
PKR
  levels of phosphorylated PKR: significantly reduced
FTD/ALS model mice [1]; comparison among treatment groups
  relative strength of the reduction of prefrontal cortex pathologies (G-quadruplex, phosphorylated PKR, poly-GA, poly-GP, phosphorylated TDP-43): strongest effect
FTD/ALS model mice [1]; dentate gyrus
  synaptic loss (synaptophysin levels) in the DG: significantly restored synaptic loss
FTD/ALS model mice [1]; hippocampus
  synaptic loss (synaptophysin levels) in the CA2-3 region: significantly restored synaptic loss
FTD/ALS model mice [1]; prefrontal cortex
  levels of G-quadruplex: significantly reduced
  levels of phosphorylated TDP-43: significantly reduced
  levels of poly-GA: significantly reduced
  levels of poly-GP: significantly reduced
FTD/ALS model mice [2]
  cognitive function of FTD/ALS model mice: significantly improved
BDNF
  expression of BDNF in the mouse brains: elicited
